Measured values reported in US20130261137A1, “Methods, Compounds and Compositions Relating to Activating a Latent Virus” (ULC BUSINESS PLC, priority 2010, published 2013).

Key:
JSC-1 cells = assay: Cell viability assay (CellTiter-Glo); conditions: for GCV cytotoxicity after pre-treatment with compound: pre-treatment 24 h (UCLB-15026 800 nM, taxol 80 nM), then GCV 20 or 100 μM, 48 and 72 h
[1] = test system: KSHV RTA in JSC-1 PYFP cells
[2] = test system: HIV-1 LTR in J-Lat A72 cells; assay: HIV-1 LTR assay, GFP expression in J-LAT A72 cells; conditions: for reduction of HIV LTR induction by 15026 compared to DMSO control: 15026 0.8 μM; for HIV-1 LTR induction by other antimicrotubule agents: taxol 0.8 μM, vinblastine 0.8 μM, ERK dependent (U0126)
KSHV RTA in JSC-1 cells = format: cell-based
[3] = test system: KSHV (rKSHV.219) in JSC-1 cells; format: cell-based
JSC-1 PYFP cells = conditions: U0126 10 μM, 40 h
HIV-1 LTR in U1 cells = assay: HIV-1 LTR induction assay, TAR RNA qPCR in U1 cells; conditions: 15026 4 μM
HIV-1 LTR in ACH2 cells = assay: HIV-1 LTR induction assay, TAR RNA qPCR in ACH2 cells; conditions: 15026 4 μM
[4] = test system: microtubule network in JSC-1 cells; assay: Confocal immunofluorescence microscopy of microtubule network; format: cell-based; conditions: 100 μM, 16 h
Method: JSC-1 cells were grown on coverslips coated with […] (Sigma) with DMSO or UCLB-15026 (100 μM) for 16 h. JSC-1 cells were then fixed in 3% paraformaldehyde, rinsed and permeabilized in 0.02% Triton-PBS. This was followed by blocking in 2% FCS-PBS, staining with anti-tubulin antibody (Sigma), washed, and then incubated with Alexa-488 conjugated goat anti-mouse secondary antibody (Molecular Probes) before being mounted onto slides using VectaShield mounting medium containing DAPI. Images were taken using confocal microscope (Leica).

[5] = test system: KSHV RTA in JSC-1 PLuc cells; format: cell-based
[6] = test system: KSHV RTA in BCBL-1 PLuc cells; format: cell-based
[7] = test system: KSHV ORF 29 in JSC-1 cells; assay: Semi-quantitative RT-PCR of KSHV late gene ORF 29 in JSC-1; format: cell-based; conditions: different concentrations
Excerpt: Briefly, RNA was extracted from 2×10^6 cells with TRIzol (Invitrogen) and treated with DNase (Ambion), followed by phenol extraction and ethanol precipitation. Serial dilution (3×10-fold) of oligonucleotide dT (Qiagen)-primed cDNA was used for PCR amplification (Promega) of KSHV ORF 29 using forward ([…]; SEQ ID NO. 1) and reverse ([…]; SEQ ID NO. 2) primers. All samples were normalized by PCR amplification of beta-2 microglobulin (β2M) using serially diluted cDNA with forward ([…]; SEQ ID NO. 3) and reverse ([…]; SEQ ID NO. 4) primers. The PCR cycle consisting of 95° C. for 30 seconds, 50° C. for 30 seconds, and 72° C. for 30 seconds was repeated 36 times for ORF 29, and 28 times for β2M. Both set of primers amplify across splice junction and the sizes (in bp) of the expected products are: ORF 29 (cDNA—399, DNA—3650) and β2M (cDNA—301, DNA—2178).

[8] = test system: HIV-1 LTR in PBMCs from HIV-1 positive individuals; assay: Ex vivo HIV-1 LTR induction assay, TAR RNA qPCR in PBMCs from HIV-1 positive individuals; format: cell-based; conditions: 100 μM, 24 h
tubulin = conditions: reported, reference 21; read-out: IC50 inhibiting tubulin polymerization; cited from earlier work
cells (cell cycle) = conditions: reported for the compound; cited from earlier work
[9] = test system: HIV-1 LTR of subtype A in LGIT cells; assay: HIV-1 LTR induction, GFP in LGIT cells, LTR subtype A; conditions: 24 hours; ERK-dependent (with or without U0126 10 μM)
[10] = test system: HIV-1 LTR of subtype C in LGIT cells; assay: HIV-1 LTR induction, GFP in LGIT cells, LTR subtype C; conditions: 24 hours; ERK-dependent (with or without U0126 10 μM)
[11] = test system: HIV-1 LTR of subtype A/G in LGIT cells; assay: HIV-1 LTR induction, GFP in LGIT cells, LTR subtype A/G; conditions: 24 hours; ERK-dependent (with or without U0126 10 μM)

In the case of `Nc1nc(O)c2ncn(COC(CO)CO)c2n1` [GCV, ganciclovir], the “effect of GCV alone on JSC-1 proliferation” value (JSC-1 cells; DMSO 24 h, then GCV 20 μM or 100 μM, 24, 48, 72 h) is reported as “no detrimental effect”.
For `O=S(=O)(NCCNC/C=C/c1ccc(Br)cc1)c1cccc2cnccc12` [H89], the “reduction of KSHV RTA induction by 15026 compared to DMSO control” value ([1]; 15026 0.8 μM) was 35% and the “reduction of HIV LTR induction by 15026 compared to DMSO control” value [2] was 80%.
In the case of `Nc1ncnc2c1ncn2[C@@H]1O[C@@H]2COP(O)(=S)O[C@H]2[C@H]1O` (some centres unmarked) [Rp-cAMP], the “reduction of HIV LTR induction by 15026 compared to DMSO control” value [2] is reported as “about 40%”.
With `CCCC(=O)[O-].[Na+]` [SB, sodium butyrate] the “KSHV RTA induction and induction kinetics (western blot)” value (KSHV RTA in JSC-1 cells) was “delayed-kinetics”.
For `CCCCCCCCCCCCCC(=O)O[C@@H]1[C@@H](C)[C@@]2(O)[C@@H](C=C(CO)C[C@]3(O)C(=O)C(C)=C[C@@H]23)[C@@H]2C(C)(C)[C@]12OC(C)=O` [TPA, 12-O-tetradecanoyl-phorbol-13-acetate], the “% RFP-positive cells” value [3] was −1.8%, the “KSHV RTA induction and induction kinetics (western blot)” value (KSHV RTA in JSC-1 cells) was “immediate-kinetics” and the “exposure required for KSHV induction” value (KSHV RTA in JSC-1 cells) was less than 1 h.
For `N#CC(=C(/N)Sc1ccccc1N)/C(C#N)=C(\N)Sc1ccccc1N` [U0126], the “cell viability (trypan blue exclusion)” value (JSC-1 PYFP cells) was “no significant effect on cell viability”, the “effect of ERK inhibitor on LTR induction by 15026 (GFP)” value ([2]; U0126 10 μM, 15026 4 μM) was “inhibited 15026 activity” and the “effect of ERK inhibitor on LTR induction by 15026 (TAR RNA)” value (HIV-1 LTR in U1 cells; U0126 10 μM) was “inhibited 15026 activity”. The “effect of ERK inhibitor on LTR induction by 15026 (TAR RNA)” value (HIV-1 LTR in ACH2 cells; U0126 10 μM) was “inhibited 15026 activity”.
With `COc1ccc(-c2csc3c2-n2cccc2C3=O)cc1` [UCLB-15026] the “effect on microtubule network (anti-tubulin immunofluorescence)” value [4] was “disrupts microtubule network”, the “RTA expression (% RLU normalized to TPA control/10^5 cells)” value [5] was “activate RTA expression” and the “RTA induction (% RLU normalized to TPA control/10^5 cells)” value [6] was “induced RTA”. The “expression of KSHV late gene ORF 29” value [7] was “dose-dependent expression”, the “TAR RNA copies compared with DMSO, three PBMC cultures” value [8] was “higher TAR RNA copies in two out of three PBMC cultures” and the “TAR RNA copies compared with DMSO, volunteer 1” value ([8]; PBMC culture) was “about 5 fold”. For the same compound, the “TAR RNA copies compared with DMSO, volunteer 2” value ([8]; PBMC culture) was “about 200 fold”, the “KSHV reactivation (% YFP-positive cells normalized to TPA control)” value [1] was “reactivated KSHV to similar levels” and the “concentration range of half their maximal activities (KSHV reactivation)” value [1] was “nanomolar range”. For the same compound, the IC50 (tubulin) was 2900 nM, the cell cycle effect (cells (cell cycle)) was “accumulated in the G2/M phases of cell cycle” and the “GCV cytotoxicity after pre-treatment with compound” value (JSC-1 cells) was “enhanced GCV cytotoxicity”. For the same compound, the “HIV-1 LTR activity (GFP expression)” value ([2]; 15026 4 μM, 24 hours) was “induced LTR activity”, the “LTR-mediated GFP expression” value ([2]; UCLB-15026 at different concentrations, 24 or 40 h) was “substantially induced” and the “HIV-1 LTR activity (TAR RNA expression)” value (HIV-1 LTR in U1 cells) was “induced LTR activity”. For the same compound, the “HIV-1 LTR activity (TAR RNA expression)” value (HIV-1 LTR in ACH2 cells) was “induced LTR activity”, the “GFP expression driven by LTR of subtype A” value [9] was “induced GFP expression” and the “GFP expression driven by LTR of subtype C” value [10] was “induced GFP expression”. For the same compound, the “GFP expression driven by LTR of subtype A/G” value [11] was “induced GFP expression”.
For `O=c1c(-c2ccc(O)cc2)coc2cc(O)cc(O)c12` [genistein], the “KSHV RTA induction by other antimicrotubule agents” value [1] was “can induce”, the “KSHV lytic cycle induction (% YFP-positive cells normalized to TPA)” value [1] was “can reactivate KSHV” and the “HIV-1 LTR activity (% GFP-positive cells normalized to TPA)” value ([2]; genistein 100 μM, 24 h post-treatment) was “induction of HIV-1 LTR activity”. For the same compound, the “HIV-1 LTR induction by other antimicrotubule agents” value (shortened to “HIV-1 LTR induction”) ([2]; genistein 100 μM) was “can induce”.
For `CC(=O)O[C@H]1C(=O)[C@@]2(C)[C@H]([C@H](OC(=O)c3ccccc3)[C@]3(O)C[C@H](OC(=O)[C@H](O)[C@@H](NC(=O)c4ccccc4)c4ccccc4)C(C)=C1C3(C)C)[C@]1(OC(C)=O)CO[C@@H]1C[C@@H]2O` [taxol, paclitaxel], the “RTA expression (% RLU normalized to TPA control/10^5 cells)” value [5] was “activate RTA expression”, the “RTA induction (% RLU normalized to TPA control/10^5 cells)” value [6] was “induced RTA” and the “expression of KSHV late gene ORF 29” value [7] was “dose-dependent expression”. For the same compound, the “KSHV reactivation (% YFP-positive cells normalized to TPA control)” value [1] was “reactivated KSHV to similar levels”, the “concentration range of half their maximal activities (KSHV reactivation)” value [1] was “nanomolar range” and the “GCV cytotoxicity after pre-treatment with compound” value (JSC-1 cells) was “small but statistically significant increase in cell cytotoxicity”. The “HIV-1 LTR induction” value ([2]; genistein 100 μM) was “induce transcriptional activities”.
In the case of `CC[C@]1(O)C[C@@H]2CN(CCc3c([nH]c4ccccc34)[C@@](C(=O)OC)(c3cc4c(cc3OC)N(C)[C@H]3[C@@](O)(C(=O)OC)[C@H](OC(C)=O)[C@]5(CC)C=CCN6CC[C@]43[C@@H]65)C2)C1` [vinblastine], the “KSHV RTA induction by other antimicrotubule agents” value [1] is reported as “can induce” and the “HIV-1 LTR induction” value ([2]; genistein 100 μM) is reported as “can induce”.
